Measured values from patent publication US4670456A, “4-Aminocarbonylaminomethyl-1-benzylpyrrolidin-2-ones as nootropic agents and as agents for treating cerebral insufficiency” (Boehringer Ingelheim KG, priority 1984, dated 1987).
pIC50: −log10 of the molar value. Read-outs that look alike come from different tables or passages of the source.

Key:
[1] = target: Muscarine-Cholinergic Receptor (Hippocampus); assay: Muscarine-Cholinergic Receptor Binding, hippocampus; set-up: species or system rat
Description: The IC50 values were calculated in the manner described by Y. C.

[2] = target: muscarine-cholinergic receptor structures in the rat cortex; assay: Muscarine-Cholinergic Receptor Binding, cortex
Description: Also as described in Example 8, the compounds tested bound with high affinity to muscarine-cholinergic receptor structures in the rat cortex.
3. Muscarine-Cholinergic Receptor Binding
This test was performed according to the methods described by M. Watson et al., Life Sci., 32, 3001-3011 (1983) and R. Hammer et al., Nature, 283, 90=92 (1980). The IC50 values were calculated in the manner described by Y. C. Cheng et al., Biochemical Pharmacology, 22, 3099-3108 (1973).

mice [3] = assay: Reversal of Scopolamine-Induced Transient Disruption of the Memory of a Passive Avoidance Procedure; assay type: in vivo; details: scopolamine 0.6 mg/kg i.p.
Description: 1. […] The animals used were mice, to which scopolamine was administered at a dosage of 0.6 mg/kg, i.p.

Acute Toxicity (LD50) = details: in vivo, po; mouse
Description: The acute toxicity of the test compounds was determined in the conventional manner, in the mouse.

mice [4] = assay: Hypoxia Tolerance Test; assay type: in vivo; details: 96.5% nitrogen, 3.5% oxygen, effective: at most 1-2 treated animals died when 7-8 untreated had died
Description: 2. Hypoxia Tolerance Test
In the method employed, mice which are untreated controls or which have been pretreated with the test substance (p.o.) are placed in respective sealed chambers which are filled with a gas mixture consisting of 96.5% nitrogen and 3.5% oxygen. The observer waits until 7-8 of the untreated animals have died. This occurs within 6-7 minutes. If the test substance is effective, at most 1-2 of the treated animals may have died.

[5] = Hippocampus, read-out: Muscarine Receptor Binding, IC50, Hippocampus
[6] = printed across the Hippocampus and Cortex columns, ineffective up to the stated concentration, read-out: Muscarine Receptor Binding, IC50, Hippocampus and Cortex (ineffective up to)

Cc1ccc(CN2CC(CNC(=O)N3CCN(C)CC3)CC2=O)cc1 (centres unmarked) [Example 13]
pIC50 [1, 5]: 4.59
pIC50 [2]: < 5.00
Scopolamine-Induced Memory Disruption, % Inhibition (mice [3]; 50 mg/kg p.o.): 50%

O=C(NCC1CC(=O)N(Cc2ccccc2)C1)Nc1ccc(Cl)cc1 (centres unmarked) [Example 5, 4-(p-Chlorophenylamino-carbonylaminomethyl)-1-benzylpyrrolidin-2-one]
LD50 at 336 h (Acute Toxicity (LD50)): > 2000 mg/kg
pIC50 [1, 5]: 4.03
Scopolamine-Induced Memory Disruption, % Inhibition (mice [3]; 5 mg/kg p.o.): 50%
Scopolamine-Induced Memory Disruption, % Inhibition (mice [3]; 10 mg/kg p.o.): 70%
Hypoxia Tolerance (mice [4]; 100 mg/kg p.o.): effective

CN1CCN(C(=O)N(C)CC2CC(=O)N(Cc3ccccc3)C2)CC1 (centres unmarked) [Example 17]
pIC50 [1, 5]: < 4.00
Scopolamine-Induced Memory Disruption, % Inhibition (mice [3]; 30 mg/kg p.o.): 45%

COc1ccc(C(=O)N2CCCC2=O)cc1 [Aniracetam, 1-(p-methoxybenzoyl)-pyrrolidin-2-one, reference compound]
pIC50 [1, 6]: < 4.00
Scopolamine-Induced Memory Disruption, % Inhibition (mice [3]; 30 mg/kg p.o.): 29.7%
Scopolamine-Induced Memory Disruption, % Inhibition (mice [3]; 50 mg/kg p.o.): 42.6%
Scopolamine-Induced Memory Disruption, % Inhibition (mice [3]; 100 mg/kg p.o.): 49.3%

CN1CCN(C(=O)NCC2CC(=O)N(Cc3ccccc3)C2)CC1 (centres unmarked) [Example 1, 4-(N-Methylpiperazinyl-carbonylaminomethyl)-1-benzylpyrrolidin-2-one]
LD50 at 336 h (Acute Toxicity (LD50)): 1500 to 2000 mg/kg
Scopolamine-Induced Memory Disruption, % Inhibition (mice [3]; 10 mg/kg p.o.): 43%

NC(=O)CN1CCCC1=O [Piracetam, 1-carbomyl-methyl-pyrrolidin-2-one, reference compound]
pIC50 [1, 6]: < 3.00
Scopolamine-Induced Memory Disruption, % Inhibition (mice [3]; 100 mg/kg p.o.): 42.9%
Scopolamine-Induced Memory Disruption, % Inhibition (mice [3]; 200 mg/kg p.o.): 53.7%
Scopolamine-Induced Memory Disruption, % Inhibition (mice [3]; 500 mg/kg p.o.): 50.0%
Hypoxia Tolerance (mice [4]; 150 mg/kg p.o.): effective

CNC(=O)NCC1CC(=O)N(Cc2ccccc2)C1 (centres unmarked) [Example 7]
pIC50 [1, 5]: < 4.00
Scopolamine-Induced Memory Disruption, % Inhibition (mice [3]; 100 mg/kg p.o.): 60%
